Each compound was assayed on HL60 cells (assay: Anti-proliferation on HL60 cells (CellTiter-Glo, 3 days)). Settings: Homo sapiens, HL-60, 72 h, 3 days incubation, CTG luminescence, IC50 by XLfit, read-out: HL60 cells Proliferation inhibitory activity.
Assay type: cell-based
Procedure: HL60 cells (Cell Bank of Chinese Academy of Sciences) in the logarithmic growth phase were counted and plated evenly in a 96-well transparent bottom white plate at 20000 cells per well and 100 μL per well.
A certain amount of the compound of the present invention was weighed and diluted with DMSO to a 10 mM stock solution. The culture medium RPMI-1640 (meilunbio, MA0215) corresponding to the cells were taken, and the compound was diluted to the concentration required by the test, shaken gently and mixed evenly. 50 μL of the gradient dilution of the diluted compound was added to each well of the plated cells, and 50 μL of 0.1% DMSO was added to the control group. The plate was shaken gently, mixed evenly and incubated in a cell culture incubator for 3 days.
• 3.1 The CellTiter-Glo™ (CTG) (purchased from Promega, Cat. No. G9242) reagent was taken in advance from the −20° C. refrigerator and equilibrated to room temperature in the dark. Cell Titer-Glo buffer and Cell Titer-Glo substrate were mixed at a ratio of 1:1 to prepare a CTG detection reagent. • 3.2 The 96-well plate was taken out and inspected under a microscope for growth. • 3.3 The bottom of the 96-well plate was tagged with white paper, and then the plate was wrapped with tin foil paper, shaken at 37° C. at 300 r for 10 min and mixed evenly. • 3.4. 50 μL of CTG detection reagent was added to each well, Luminescence signal was detected using a microplate reader Biotek Synergy Hi, and the inhibition rate was calculated. IC50 values of the compounds were calculated by XLfit 5.5.0 software to evaluate the proliferation inhibitory activity on HL60 cells.
Compound `O=C1CCC(N2Cc3cc(NC(=O)CC4CCN(c5ncc(-c6ccncc6)cn5)CC4)ccc3C2=O)C(=O)N1` (stereo not shown) [Compound A60] has an IC50 of 60 nM. `Cc1cc(-c2cccc(Cl)c2)cnc1N1CCC(CNCc2ccc3c(c2)CN(C2CCC(=O)NC2=O)C3=O)CC1` (stereo not shown) [Compound A76] was tested, and the IC50 was < 0.2 nM. `O=C1CCC(N2Cc3cc(CNCC4CCN(c5ncc(-c6cccc(Cl)c6)cc5[N+](=O)[O-])CC4)ccc3C2=O)C(=O)N1` (stereo not shown) [Compound A78] was tested, and the IC50 was 3 nM. With `CN(C)c1cc(-c2cccc(Cl)c2)cnc1N1CCC(CNCc2ccc3c(c2)CN(C2CCC(=O)NC2=O)C3=O)CC1` (stereo not shown) [Compound A79] the IC50 was < 0.2 nM. Compound `O=C1CCC(N2Cc3cc(CNCC4(F)CCN(c5ncc(-c6cccc(Cl)c6)cc5F)CC4)ccc3C2=O)C(=O)N1` (stereo not shown) [Compound A84] has an IC50 of 2.6 nM. `O=C1CCC(N2Cc3cc(CNCC4CCN(c5ncc(-c6cccc(Cl)c6)cc5F)CC4(F)F)ccc3C2=O)C(=O)N1` (stereo not shown) [Compound A88] was tested, and the IC50 was 0.8 nM. `N#CC1(CNCc2ccc3c(c2)CN(C2CCC(=O)NC2=O)C3=O)CCN(c2ncc(-c3cccc(Cl)c3)cc2C(F)(F)F)CC1` (stereo not shown) [Compound A89] was tested, and the IC50 was 9.2 nM. `O=C1CCC(N2Cc3cc(CNCC4CC5CCC(C4)N5c4ncc(-c5cccc(Cl)c5)cc4C(F)(F)F)ccc3C2=O)C(=O)N1` (stereo not shown) [Compound A90] showed an IC50 of 45.6 nM. With `O=C1CCC(N2Cc3cc(CNCC4C5CCC4CN(c4ncc(-c6cccc(Cl)c6)cc4C(F)(F)F)C5)ccc3C2=O)C(=O)N1` (stereo not shown) [Compound A91] the IC50 was 36.1 nM. Compound `O=C1CCC(N2Cc3cc(CNCC4CCN(c5ncc(-c6cccc(OC(F)(F)F)c6)cc5C(F)(F)F)CC4)ccc3C2=O)C(=O)N1` (stereo not shown) [Compound A96] has an IC50 of 1.8 nM. `CN(C)c1cccc(-c2cnc(N3CCC(CNCc4ccc5c(c4)CN(C4CCC(=O)NC4=O)C5=O)CC3)c(C(F)(F)F)c2)c1` (stereo not shown) [Compound A97] was tested, and the IC50 was 0.4 nM. `NC(=O)c1cc(-c2cccc(Cl)c2)cnc1N1CCC(CNCc2ccc3c(c2)CN(C2CCC(=O)NC2=O)C3=O)CC1` (stereo not shown) [Compound A99] was tested, and the IC50 was 1.2 nM. `O=C1CCC(N2Cc3cc(CNCC4CCN(c5cc(F)c(-c6cccc(Cl)c6)cn5)CC4)ccc3C2=O)C(=O)N1` (stereo not shown) [Compound A101] gave an IC50 of 10.9 nM. `O=C1CCC(N2Cc3cc(CNCC4CCN(c5ccc(-c6cccc(Cl)c6)cc5C(F)(F)F)CC4)ccc3C2=O)C(=O)N1` (stereo not shown) [Compound A104] showed an IC50 of 20.5 nM. With `O=C1CCC(N2Cc3cc(CNCC4CCN(c5ncc(-c6ccccn6)cc5F)CC4)ccc3C2=O)C(=O)N1` (stereo not shown) [Compound A106] the IC50 was 878 nM. `COc1cc(Cl)cc(-c2cnc(N3CCC(CNCc4ccc5c(c4)CN(C4CCC(=O)NC4=O)C5=O)CC3)c(C(F)(F)F)c2)c1` (stereo not shown) [Compound A113] showed an IC50 of 3 nM. Compound `Cc1cc(Cl)cc(-c2cnc(N3CCC(CNCc4ccc5c(c4)CN(C4CCC(=O)NC4=O)C5=O)CC3)c(C(F)(F)F)c2)c1` (stereo not shown) [Compound A114] has an IC50 of 11 nM. With `O=C1CCC(N2Cc3cc(CNCC4CCN(c5ncc(-c6cc(F)cc(Cl)c6)cc5C(F)(F)F)CC4)ccc3C2=O)C(=O)N1` (stereo not shown) [Compound A115] the IC50 was 1.5 nM. Work on `O=C(CC1CCN(c2ncc(-c3cccc4ccccc34)cn2)CC1)Nc1ccc2c(c1)CN(C1CCC(=O)N(COP(=O)(O)O)C1=O)C2=O` (stereo not shown) [Compound A117] yielded an IC50 of 12 nM. In the case of `O=C1CCC(N2Cc3cc(CNCC4CCN(c5ncc(-c6cccc(Cl)c6)cc5C(F)F)CC4)ccc3C2=O)C(=O)N1` (stereo not shown) [Compound A118], the IC50 is reported as 3.97 nM. `COc1cccc(-c2cnc(N3CCC(F)(C(=O)NCc4ccc5c(c4)CN(C4CCC(=O)NC4=O)C5=O)CC3)c(F)c2)c1` (stereo not shown) [Compound A119] was tested, and the IC50 was 1.09 nM. For `COc1cccc(-c2cnc(N3CCC(F)(CNCc4ccc5c(c4)CN(C4CCC(=O)NC4=O)C5=O)CC3)c(F)c2)c1` (stereo not shown) [Compound A120], the IC50 was 2.47 nM. With `COc1cccc(-c2cnc(N3CCC(F)(CNCc4ccc5c(c4)CN(C4CCC(=O)NC4=O)C5=O)CC3)c(C(F)(F)F)c2)c1` (stereo not shown) [Compound A121] the IC50 was 4.69 nM. With `O=C1CCC(N2Cc3cc(CNCC4(F)CCN(c5ncc(-c6cccc(F)c6)cc5F)CC4)ccc3C2=O)C(=O)N1` (stereo not shown) [Compound A122] the IC50 was 1.76 nM. With `Cc1cccc(-c2cnc(N3CCC(CNCc4ccc5c(c4)CN([C@H]4CCC(=O)NC4=O)C5=O)CC3)c(C(F)(F)F)c2)c1` [Compound A123] the IC50 was < 3.04 nM. For `Cc1cccc(-c2cnc(N3CCC(CNCc4ccc5c(c4)CN([C@@H]4CCC(=O)NC4=O)C5=O)CC3)c(C(F)(F)F)c2)c1` [Compound A124], the IC50 was < 3.04 nM. Compound `O=C1CC[C@H](N2Cc3cc(CNCC4CCN(c5ncc(-c6cccc(F)c6)cc5F)CC4)ccc3C2=O)C(=O)N1` [Compound A125] has an IC50 of 2.48 nM. In the case of `O=C1CC[C@@H](N2Cc3cc(CNCC4CCN(c5ncc(-c6cccc(F)c6)cc5F)CC4)ccc3C2=O)C(=O)N1` [Compound A126], the IC50 is reported as 6.7 nM. Work on `O=C1CC[C@H](N2Cc3cc(CNCC4(F)CCN(c5ncc(-c6cccc(Cl)c6)cc5C(F)(F)F)CC4)ccc3C2=O)C(=O)N1` [Compound A127] yielded an IC50 of 6.75 nM. `O=C1CC[C@@H](N2Cc3cc(CNCC4(F)CCN(c5ncc(-c6cccc(Cl)c6)cc5C(F)(F)F)CC4)ccc3C2=O)C(=O)N1` [Compound A128] showed an IC50 of 9.04 nM. For `O=C1CCC(N2Cc3cc(CNCC4CCN(c5ncc(-n6c7ccccc7c7ccccc76)cc5C(F)(F)F)CC4)ccc3C2=O)C(=O)N1` (stereo not shown) [Compound A129], the IC50 was 120 nM. `Cc1ccc(N2CCN(Cc3ccc(C(=O)NCc4ccc5c(c4)CN(C4CCC(=O)NC4=O)C5=O)cc3)CC2)cc1Cl` (stereo not shown) [Compound A130] was tested, and the IC50 was 0.54 nM. `COc1cccc(-c2cnc(N3CCC(CCNc4ccc5c(c4)CN(C4CCC(=O)NC4=O)C5=O)CC3)c(C(F)(F)F)c2)c1` (stereo not shown) [Compound A132] gave an IC50 of 8.37 nM. Work on `O=C1CCC(N2Cc3cc(OCCC4CCN(c5ncc(-c6cccc(Cl)c6)cc5C(F)(F)F)CC4)ccc3C2=O)C(=O)N1` (stereo not shown) [Compound A133] yielded an IC50 of 175 nM. `O=C1CCC(N2Cc3cc(CCCN4CCN(c5ncc(-c6cccc(Cl)c6)cc5C(F)(F)F)CC4)ccc3C2=O)C(=O)N1` (stereo not shown) [Compound A135] gave an IC50 of 25.7 nM. Compound `O=C1CCC(N2C(=O)c3cc4c(cc3C2=O)CN(CC2CCN(c3ncc(-c5cccc(Cl)c5)cc3C(F)(F)F)CC2)C4)C(=O)N1` (stereo not shown) [Compound A138] has an IC50 of 1100 nM. With `O=C1CCC(N2Cc3c(ccc(CNCC4CCN(c5ncc(-c6cccc(Cl)c6)cc5C(F)(F)F)CC4)c3F)C2=O)C(=O)N1` (stereo not shown) [Compound A139] the IC50 was 17.7 nM. For `O=C1CCC(N2Cc3nc(CNCC4CCN(c5ncc(-c6cccc(Cl)c6)cc5C(F)(F)F)CC4)ccc3C2=O)C(=O)N1` (stereo not shown) [Compound A141], the IC50 was 160 nM. With `O=C1CCC(N2Cc3cc(CNCC4CCN(c5ncc(-c6cccc(Cl)c6)cc5C(F)(F)F)CC4)ncc3C2=O)C(=O)N1` (stereo not shown) [Compound A142] the IC50 was 397 nM. `O=C1CCC(N2Cc3c(csc3CNCC3CCN(c4ncc(-c5cccc(Cl)c5)cc4C(F)(F)F)CC3)C2=O)C(=O)N1` (stereo not shown) [Compound A143] gave an IC50 of 3040 nM. For `COc1cccc(-c2cnc(N3CCC(CNCc4scc5c4CN(C4CCC(=O)NC4=O)C5=O)CC3)c(C(F)(F)F)c2)c1` (stereo not shown) [Compound A144], the IC50 was 752 nM. `O=C1CCC(n2nc3cc(CNCC4CCN(c5ncc(-c6cccc(F)c6)cc5F)CC4)ccn3c2=O)C(=O)N1` (stereo not shown) [Compound A147] gave an IC50 of 12300 nM. Work on `O=C1CCC(c2cn3cc(CNCC4CCN(c5ncc(-c6cccc(Cl)c6)cc5C(F)(F)F)CC4)ccc3n2)C(=O)N1` (stereo not shown) [Compound A148] yielded an IC50 of 8520 nM. `O=C1CCC(c2coc3cc(CNCC4CCN(c5ncc(-c6cccc(Cl)c6)cc5C(F)(F)F)CC4)ccc23)C(=O)N1` (stereo not shown) [Compound A149] was tested, and the IC50 was 1740 nM. Work on `O=C1CCC(c2coc3ccc(CNCC4CCN(c5ncc(-c6cccc(Cl)c6)cc5C(F)(F)F)CC4)cc23)C(=O)N1` (stereo not shown) [Compound A150] yielded an IC50 of 3360 nM. `Cc1nc2ccc(CNCC3CCN(c4ncc(-c5cccc(Cl)c5)cc4C(F)(F)F)CC3)cc2c(=O)n1C1CCC(=O)NC1=O` (stereo not shown) [Compound A151] showed an IC50 of 687 nM. For `Cc1nc2cc(CNCC3CCN(c4ncc(-c5cccc(Cl)c5)cc4C(F)(F)F)CC3)ccc2c(=O)n1C1CCC(=O)NC1=O` (stereo not shown) [Compound A152], the IC50 was 7320 nM. `O=C1CCC(n2c(C3CC3)nc3cc(CNCC4CCN(c5ncc(-c6cccc(Cl)c6)cc5C(F)(F)F)CC4)ccc3c2=O)C(=O)N1` (stereo not shown) [Compound A153] was tested, and the IC50 was 11600 nM. For `O=C1CCC(n2nnc3ccc(CNCC4CCN(c5ncc(-c6cccc(Cl)c6)cc5C(F)(F)F)CC4)cc3c2=O)C(=O)N1` (stereo not shown) [Compound A154], the IC50 was 116 nM. With `O=C1CCC(NC(=O)c2ccc(CNCC3CCN(c4ncc(-c5cccc(Cl)c5)cc4C(F)(F)F)CC3)cc2)C(=O)N1` (stereo not shown) [Compound A155] the IC50 was 825 nM. `O=C1CCC(NC(=O)c2ccc(CNCC3CCN(c4ncc(-c5cccc(Cl)c5)cc4C(F)(F)F)CC3)cn2)C(=O)N1` (stereo not shown) [Compound A156] was tested, and the IC50 was 268 nM. In the case of `O=C1CCC(NC(=O)c2ccc(CNCC3CCN(c4ncc(-c5cccc(Cl)c5)cc4C(F)(F)F)CC3)nc2)C(=O)N1` (stereo not shown) [Compound A157], the IC50 is reported as 11700 nM. Compound `O=C1CCC(NC(=O)c2ccc(CNCC3CCN(c4ncc(-c5cccc(Cl)c5)cc4C(F)(F)F)CC3)cc2F)C(=O)N1` (stereo not shown) [Compound A158] has an IC50 of 6660 nM. For `O=C1CCC(NC(=O)c2ccc(CNCC3CCN(c4ncc(-c5cccc(Cl)c5)cc4C(F)(F)F)CC3)c(F)c2)C(=O)N1` (stereo not shown) [Compound A159], the IC50 was 6700 nM. In the case of `O=C1CCC(NC(=O)c2ccc(CNCC3CCN(c4ncc(-c5cccc(Cl)c5)cc4C(F)(F)F)CC3)c(Br)c2)C(=O)N1` (stereo not shown) [Compound A160], the IC50 is reported as 1100 nM.

Reference: patent US20250059162A1, “MULTI-PROTEIN DEGRADATION AGENT HAVING IMIDE SKELETON” (SUZHOU KINTOR PHARMACEUTICALS, INC., priority 2021, published 2025)
